Laboratory results: US20210290153A1, “DRUG DELIVERY DEVICES HAVING ADSORBED MEDICATION ADHERENCE MARKERS THEREON, PACKAGING INCLUDING THE SAME AND METHODS OF FORMING THE SAME” (Xhale, Inc., priority 2018, published 2021)

Details: maltodextrin-coated vitamin tablet sealed approximately one week with sorbent pad loaded with approximately 200 mg 2-butanol; ingested; breath at approximately 10 minutes after ingestion
Procedure: Referring to FIG. 3, a vitamin tablet was dipped into a maltodextrin/water solution and the tablet was allowed to dry. A tiny sorbent pad loaded with approximately 200 mg of 2-butanol was added to the bottom of a tiny plastic vial to simulate a blister cavity. The dry coated tablet was then added to the vial and sealed via a screw top. After approximately one week, the vial was opened and the tablet was ingested by an individual.

## CCC(C)O (stereo not shown) [2-butanol]
  2-butanone, a metabolite of 2-butanol, detected in the individual's breath: significant quantity
